“Also recorded” adds a separate entry of the source.
Experiments:
[1] = tested on: mice on 75%-CDE diet (NASH, fibrosis and HCC); assay: Prevention study: CDE diet-induced NASH in mice, proglumide in drinking water from start of diet; format: in vivo, mouse (female C57BL/6)
Experimental: All mouse studies were performed in an ethical fashion and approved by the Institutional Animal Care and Use Committee, protocol #2016-1193 for animal research by Georgetown University. Female C57BL/6 mice (body weight of >20 g) were obtained from Charles River Laboratory (Germantown, MD). Mice were housed with five per cage with filter-top cages and housing light cycled q12 hrs; on-off. […] The first group received a modified Choline Deficient Diet with 75% Ethionine supplemented diet (CDE) as previously described by […] et al. “A modified choline-deficient, ethionine-supplemented diet reduces morbidity and retains a liver progenitor cell response in mice,” Dis Model Mech 8:1635-1641 (2015). […] The control mice received the same diet with choline. Both diets contained casein as the major source of protein and lard (saturated fat) as the primary source of fat. The diet composition is shown in Table 1 and is very similar to the Western diet (Roberts et al. “Western diet-induced hepatic steatosis and alterations in the liver transcriptome in adult Brown-Norway rats,” BMC Gastroenterol. 15:151 (2015)) where the diet consists of a high fat and high sugar and is often used in experimental animal diets to induce NAFLD. The food intake was measured by weighing food consumed to assure mice were eating equal amounts of food in each group, and animals ate ad libitum. Some mice on both diets were treated with the CCK receptor antagonist proglumide (Tocris Bioscience, Bristol, UK) at a concentration of 0.1 mg/ml and the estimated amount ingested per mouse was 30 mg/kg/d that was previously shown to block the CCK receptor (Smith et al. “Cholecystokinin receptor antagonist halts progression of pancreatic cancer precursor lesions and fibrosis in mice,” Pancreas 43:1050-1059 (2014)). Another cohort received untreated drinking water. The study design included two different parts: a “prevention study” and a “reversal study” (FIG. 1). In the prevention study, the goal was to determine if treatment with proglumide could prevent NASH, fibrosis and HCC if started at the same time of the initiation of the high fat CDE diet. Initially mice were randomized into one of four treatment group (FIG. 1). Sixty-five mice received the 75%-CDE diet and untreated drinking water (CDE/Reg). Of these (N=5 each) mice were ethically euthanized and livers dissected and analyzed histologically to assess for evidence of NASH at weeks 4 and 8. When NASH was becoming apparent, mice were continued on this diet and some (N=10) were euthanized at week 12 and some (N=25) were euthanized at week 18. Five mice died in the CDE/Reg diet in the first 12 weeks. A parallel cohort of mice (N=25) were also given the CDE diet but their drinking water was treated with the CCK-receptor antagonist proglumide. In this cohort, some (N=10) were euthanized, blood drawn, and liver examined histologically at week 12. The remainder (N=15) were euthanized and examined at week 18 to compare to the CDE/Reg group. Twenty mice each were treated with the control diet, and half (N=10) in this group received proglumide water and half received untreated drinking water. Half of the control mice were euthanized at the first time point of 12 weeks and the remainder was euthanized at the end of the experiment at 18 weeks. Subgroups of mice were ethically euthanized after CO2 asphyxiation and cervical dislocation at one of 4 different time points: weeks 4, 8, 12, or 18. Blood was collected by pericardiac puncture and centrifuged. Serum was analyzed by VRL Laboratories (Gaithersburg, MD). The following liver tests were evaluated and the normal range for mouse is shown: Alkaline phosphatase (35-275 u/L); Alanine aminotransferase, ALT (17-129 u/L); Aspartate aminotransferase, AST (46-392 u/L); and total bilirubin (0-0.9 mg/dL). The liver tissues were fixed in 4% paraformaldehyde, paraffin embedded, and 8 μm sections were cut. Mounted sections were stained with Hematoxylin & Eosin or Masson's trichrome. […]

[2] = tested on: mice on CDE diet with established NASH; assay: Reversal (recovery) study: established NASH after 12 weeks of CDE diet, then proglumide for 6 weeks; format: in vivo, mouse (female C57BL/6)
Experimental: All mouse studies were performed in an ethical fashion and approved by the Institutional Animal Care and Use Committee, protocol #2016-1193 for animal research by Georgetown University. Female C57BL/6 mice (body weight of >20 g) were obtained from Charles River Laboratory (Germantown, MD). Mice were housed with five per cage with filter-top cages and housing light cycled q12 hrs; on-off. […] The first group received a modified Choline Deficient Diet with 75% Ethionine supplemented diet (CDE) as previously described by […] et al. “A modified choline-deficient, ethionine-supplemented diet reduces morbidity and retains a liver progenitor cell response in mice,” Dis Model Mech 8:1635-1641 (2015). […] The control mice received the same diet with choline. Both diets contained casein as the major source of protein and lard (saturated fat) as the primary source of fat. The diet composition is shown in Table 1 and is very similar to the Western diet (Roberts et al. “Western diet-induced hepatic steatosis and alterations in the liver transcriptome in adult Brown-Norway rats,” BMC Gastroenterol. 15:151 (2015)) where the diet consists of a high fat and high sugar and is often used in experimental animal diets to induce NAFLD. The food intake was measured by weighing food consumed to assure mice were eating equal amounts of food in each group, and animals ate ad libitum. Some mice on both diets were treated with the CCK receptor antagonist proglumide (Tocris Bioscience, Bristol, UK) at a concentration of 0.1 mg/ml and the estimated amount ingested per mouse was 30 mg/kg/d that was previously shown to block the CCK receptor (Smith et al. “Cholecystokinin receptor antagonist halts progression of pancreatic cancer precursor lesions and fibrosis in mice,” Pancreas 43:1050-1059 (2014)). Another cohort received untreated drinking water. The reversal study, took mice that had been on the CDE diet and untreated water (CDE/Reg) for 12 weeks (a time determined to result in the mice having NASH histologically and biochemical hepatitis). Mice were randomly allocated to one of two groups at 12 weeks. The first group (N=15) continued on the CDE diet and untreated water and the second group (N=15) also continued on the CDE diet but then received proglumide in the drinking water at the same concentration as the prevention study (0.1 mg/ml). The purpose of the reversal study was to see if proglumide could reverse any of the histologic and biochemical abnormalities of NASH from the 12-week CDE/regular water diet. The other group continued on the CDE diet with untreated drinking water. The animals in each group were weighed weekly. At the termination of the experiment the animal body weight and liver weight were recorded. Subgroups of mice were ethically euthanized after CO2 asphyxiation and cervical dislocation at one of 4 different time points: weeks 4, 8, 12, or 18. Blood was collected by pericardiac puncture and centrifuged. Serum was analyzed by VRL Laboratories (Gaithersburg, MD). The following liver tests were evaluated and the normal range for mouse is shown: Alkaline phosphatase (35-275 u/L); Alanine aminotransferase, ALT (17-129 u/L); Aspartate aminotransferase, AST (46-392 u/L); and total bilirubin (0-0.9 mg/dL). The liver tissues were fixed in 4% paraformaldehyde, paraffin embedded, and 8 μm sections were cut. Mounted sections were stained with Hematoxylin & Eosin or Masson's trichrome. A Liver pathologist blinded to the treatments and time period scored tissues for inflammation, fibrosis, steatosis, and whether there was evidence of dysplastic nodules or cancer (Table 2). Histology was scored for grade of inflammation (0-3), fibrosis (0-4), steatosis (0-3), balloon degeneration (0-2) and dysplasia or cancer (0-2). For analysis, a NASH score was defined as the combination of the steatosis and the balloon degeneration score. […]

[3] = tested on: mice on control high fat diet; assay: Control high fat diet with choline, proglumide-treated versus untreated water; format: in vivo, mouse (female C57BL/6)
Experimental: All mouse studies were performed in an ethical fashion and approved by the Institutional Animal Care and Use Committee, protocol #2016-1193 for animal research by Georgetown University. Female C57BL/6 mice (body weight of >20 g) were obtained from Charles River Laboratory (Germantown, MD). Mice were housed with five per cage with filter-top cages and housing light cycled q12 hrs; on-off.
Mice were fed one of two custom high fat diets from MP Biomedicals, LLC (Solon, Ohio). The first group received a modified Choline Deficient Diet with 75% Ethionine supplemented diet (CDE) as previously described by Passman et al. “A modified choline-deficient, ethionine-supplemented diet reduces morbidity and retains a liver progenitor cell response in mice,” Dis Model Mech 8:1635-1641 (2015). […] The control mice received the same diet with choline. Both diets contained casein as the major source of protein and lard (saturated fat) as the primary source of fat. […] The food intake was measured by weighing food consumed to assure mice were eating equal amounts of food in each group, and animals ate ad libitum. […]
Subgroups of mice were ethically euthanized after CO2 asphyxiation and cervical dislocation at one of 4 different time points: weeks 4, 8, 12, or 18. […] Serum was analyzed by VRL Laboratories (Gaithersburg, MD). The following liver tests were evaluated and the normal range for mouse is shown: Alkaline phosphatase (35-275 u/L); Alanine aminotransferase, ALT (17-129 u/L); Aspartate aminotransferase, AST (46-392 u/L); and total bilirubin (0-0.9 mg/dL).
The liver tissues were fixed in 4% paraformaldehyde, paraffin embedded, and 8 μm sections were cut. […] A Liver pathologist blinded to the treatments and time period scored tissues for inflammation, fibrosis, steatosis, and whether there was evidence of dysplastic nodules or cancer (Table 2). Histology was scored for grade of inflammation (0-3), fibrosis (0-4), steatosis (0-3), balloon degeneration (0-2) and dysplasia or cancer (0-2). […]

[4] = PIVENS trial; cited from earlier work
[5] = CDE/Prog vs CDE/Reg, weeks 12 and 18
[6] = CDE/Reg 12 weeks then proglumide water 6 weeks

CCCN(CCC)C(=O)C(CCC(=O)O)NC(=O)c1ccccc1 (centres unmarked) [proglumide]
serum AST levels ([1]; CDE diet + proglumide 0.1 mg/ml in drinking water from day 0 (Prevention), vs CDE/Reg): restored to near normal; also recorded: at or near normal levels
ALT serum levels, week 12 ([1]; CDE diet + proglumide water from day 0, week 12): did not prevent elevation
ALT serum levels, week 18 ([1]; CDE diet + proglumide water from day 0, week 18): did decrease ALT values; also recorded: able to prevent this increase only after 18 weeks
serum total bilirubin ([1]; CDE diet + proglumide water from day 0, weeks 12 and 18, vs CDE/Reg): completely prevented; also recorded: prevented bilirubin level increases
alkaline phosphatase blood levels ([1]; CDE diet + proglumide water, vs CDE/Reg): not prevented or reversed; also recorded: did not decrease alkaline phosphatase
histologic features/changes of NASH [1, 5]: significantly decreased; also recorded: prevented
histologic fibrosis score [1, 5]: prevented; also recorded: decreased fibrosis
histologic inflammation score [1, 5]: prevented; also recorded: marked decrease in inflammation; also recorded: decreased inflammation
histologic steatosis score [1, 5]: prevented; also recorded: decreased steatosis
balloon degeneration ([1]; CDE/Prog, week 12 liver histology): minimal or no balloon degeneration
mice with dysplastic nodules or HCC ([1]; week 18, CDE/Prog prevention arm N=15, CDE/Reg 8 of 23): none and no dysplasia or HCC
serum AST levels ([2]; CDE/Reg 12 weeks then CDE/Prog 6 weeks (Recovery)): significantly decreased
HCC or dysplastic nodules ([2]; CDE/Reg 12 weeks then CDE/proglumide 6 weeks, N=15, week 18): no evidence of HCC or dysplastic nodules and none
alkaline phosphatase levels [2, 6]: not prevented or reversed
serum total bilirubin [2, 6]: returned to the normal range; also recorded: decreased bilirubin
ALT serum levels ([2]; Recovery vs CDE/Reg for 18 full weeks): this difference was not significant
histologic fibrosis score ([2]; Recovery, week 18): able to decrease; also recorded: improved
histologic inflammation score ([2]; Recovery, week 18): able to decrease; also recorded: improved
liver blood tests and histology ([2]; proglumide for 6 weeks while continuing the CDE diet): improved significantly
abnormalities in hepatic blood tests or weight ([3]; control diet with proglumide vs untreated drinking water): no evidence of abnormalities
body weight ([3]; control diet, proglumide water vs untreated water): did not weigh more
liver histology ([3]; control diet, proglumide water vs untreated water, week 18): no evidence of NASH; also recorded: No differences

Vitamin E
reversal of fibrosis [4]: neither compound statistically reversed fibrosis

Reference: US12251364B2, “Treating non-alcoholic steatohepatitis with cck inhibitors” (priority 2018, dated 2025)
